Measured values as given in ChEMBL document CHEMBL1201862, “PubChem BioAssay data set” (2004).
Activity calls are given as the source filed them.

Tests used:
[1] = molecular target: T1, Calpain-2 catalytic subunit (Sus scrofa, UniProt P43367); assay: pig calpain II inhibitor potency, dose response, biochemical, fluorogenic peptide substrate (AID 1420); type: functional
T1 sequence (P43367 whole entry): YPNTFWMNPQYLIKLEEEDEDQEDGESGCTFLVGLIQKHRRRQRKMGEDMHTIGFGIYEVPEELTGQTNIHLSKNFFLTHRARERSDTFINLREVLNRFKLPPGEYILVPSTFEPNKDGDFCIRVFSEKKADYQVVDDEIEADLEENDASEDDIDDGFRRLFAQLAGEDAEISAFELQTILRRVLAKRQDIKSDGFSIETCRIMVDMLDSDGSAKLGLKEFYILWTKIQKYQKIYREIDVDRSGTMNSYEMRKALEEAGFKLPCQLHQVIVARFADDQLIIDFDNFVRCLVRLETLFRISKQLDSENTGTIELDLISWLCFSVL

[2] = molecular target: T2, Methionyl-tRNA synthetase, putative (Trypanosoma brucei brucei, UniProt Q38C91); type: functional, Trypanosoma brucei brucei strain 927/4 GUTat10.1
T2 sequence (Q38C91 whole entry): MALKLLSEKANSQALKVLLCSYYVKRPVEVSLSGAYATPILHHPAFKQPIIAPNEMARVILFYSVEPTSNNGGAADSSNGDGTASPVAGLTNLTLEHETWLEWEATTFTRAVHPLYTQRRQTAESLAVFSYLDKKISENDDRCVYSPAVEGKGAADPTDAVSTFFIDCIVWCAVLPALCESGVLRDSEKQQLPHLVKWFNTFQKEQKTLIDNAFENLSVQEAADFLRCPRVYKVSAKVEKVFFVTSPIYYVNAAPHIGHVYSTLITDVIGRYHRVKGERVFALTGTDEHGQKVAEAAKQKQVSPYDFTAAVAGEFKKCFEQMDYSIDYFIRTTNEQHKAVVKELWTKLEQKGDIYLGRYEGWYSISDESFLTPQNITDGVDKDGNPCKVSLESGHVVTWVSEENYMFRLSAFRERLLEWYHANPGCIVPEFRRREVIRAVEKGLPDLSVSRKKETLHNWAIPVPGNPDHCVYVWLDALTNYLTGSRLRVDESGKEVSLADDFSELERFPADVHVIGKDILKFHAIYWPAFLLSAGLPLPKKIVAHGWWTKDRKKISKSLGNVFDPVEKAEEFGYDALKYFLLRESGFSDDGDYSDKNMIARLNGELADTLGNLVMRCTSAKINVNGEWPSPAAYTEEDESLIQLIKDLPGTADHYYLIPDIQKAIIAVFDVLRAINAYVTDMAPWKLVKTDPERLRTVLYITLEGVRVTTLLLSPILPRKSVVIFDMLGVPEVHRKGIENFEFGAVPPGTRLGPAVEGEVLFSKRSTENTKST

[3] = Counterscreen for inhibitors of Trypanosoma brucei methionyl tRNA synthetase (MetRS): Luminescence-based cell-based high throughput dose response assay to identify compounds that are cytotoxic to Jurkat human T lymphocyte cells.; type: functional
[4] = molecular target: T2, Methionyl-tRNA synthetase, putative; type: functional, Trypanosoma brucei brucei strain 927/4 GUTat10.1; remark: listed apart in the source
[5] = molecular target: Induced myeloid leukemia cell differentiation protein Mcl-1 (Homo sapiens, UniProt Q07820); type: functional
[6] = molecular target: T3, Apoptotic protease-activating factor 1 (Homo sapiens, UniProt O14727); type: functional
T3 sequence (O14727 whole entry): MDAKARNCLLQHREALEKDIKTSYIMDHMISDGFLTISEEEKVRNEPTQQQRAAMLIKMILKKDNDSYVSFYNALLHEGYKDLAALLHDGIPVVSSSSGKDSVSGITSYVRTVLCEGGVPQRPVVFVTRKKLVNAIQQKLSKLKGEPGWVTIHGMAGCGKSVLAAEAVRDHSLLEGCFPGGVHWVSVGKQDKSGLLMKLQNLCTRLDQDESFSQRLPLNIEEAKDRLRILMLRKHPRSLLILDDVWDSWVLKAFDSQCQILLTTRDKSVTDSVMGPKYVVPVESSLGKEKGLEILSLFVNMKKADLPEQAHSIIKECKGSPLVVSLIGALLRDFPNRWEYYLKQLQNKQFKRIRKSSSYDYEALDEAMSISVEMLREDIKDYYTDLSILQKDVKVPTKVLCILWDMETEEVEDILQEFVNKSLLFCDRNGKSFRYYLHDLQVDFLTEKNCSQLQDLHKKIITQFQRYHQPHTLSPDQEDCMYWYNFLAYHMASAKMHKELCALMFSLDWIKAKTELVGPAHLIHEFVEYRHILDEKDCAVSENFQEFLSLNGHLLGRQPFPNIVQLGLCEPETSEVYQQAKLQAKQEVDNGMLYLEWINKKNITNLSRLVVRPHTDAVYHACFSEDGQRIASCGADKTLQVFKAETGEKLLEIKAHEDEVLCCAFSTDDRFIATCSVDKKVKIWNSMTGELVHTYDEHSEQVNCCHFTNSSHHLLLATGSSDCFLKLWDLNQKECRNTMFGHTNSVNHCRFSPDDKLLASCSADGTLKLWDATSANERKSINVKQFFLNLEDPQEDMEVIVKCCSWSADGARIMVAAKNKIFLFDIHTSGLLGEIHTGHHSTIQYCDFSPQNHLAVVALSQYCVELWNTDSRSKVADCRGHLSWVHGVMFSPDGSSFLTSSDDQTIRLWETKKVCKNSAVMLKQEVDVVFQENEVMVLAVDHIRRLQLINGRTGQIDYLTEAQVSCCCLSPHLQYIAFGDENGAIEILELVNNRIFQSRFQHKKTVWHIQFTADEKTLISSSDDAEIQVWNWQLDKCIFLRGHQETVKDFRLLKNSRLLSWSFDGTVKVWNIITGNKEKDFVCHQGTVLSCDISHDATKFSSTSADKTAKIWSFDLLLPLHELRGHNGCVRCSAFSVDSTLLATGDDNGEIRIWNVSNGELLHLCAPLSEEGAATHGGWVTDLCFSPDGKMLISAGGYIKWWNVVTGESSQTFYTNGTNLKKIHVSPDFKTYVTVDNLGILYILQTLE

[7] = molecular target: T4, Polyadenylate-binding protein 1 (Homo sapiens, UniProt P11940); assay: PABP1 MLLE–PAM2 interaction inhibitors, dose response, miRNA deadenylation inhibitor project, biochemical, fluorescence polarization, Cy5-PAM2 peptide, secondary (AID 602260); type: functional; settings: read-out: IC50_Mean
[8] = molecular target: T4, Polyadenylate-binding protein 1; assay: PABP1 MLLE–PAM2 binding inhibitor potency, dose response, biochemical, fluorescence polarization, FITC-PAM2 peptide (AID 602259); type: functional; settings: read-out: IC50_Mean
[9] = THP-1 cell cytotoxicity, dose response, cytotoxicity control for Vif-APOBEC3G degradation inhibitor project, THP-1 cells (AID 1117359); type: functional; settings: Human immunodeficiency virus 1, THP-1
[10] = molecular target: T5, DNA repair and recombination protein RAD54-like (Homo sapiens, UniProt Q92698); assay: inhibitors of human RAD54 branch migration, confirmation, biochemical, fluorescence, cherry-picked samples, dose series (AID 651657); type: functional
T5 sequence (Q92698 whole entry): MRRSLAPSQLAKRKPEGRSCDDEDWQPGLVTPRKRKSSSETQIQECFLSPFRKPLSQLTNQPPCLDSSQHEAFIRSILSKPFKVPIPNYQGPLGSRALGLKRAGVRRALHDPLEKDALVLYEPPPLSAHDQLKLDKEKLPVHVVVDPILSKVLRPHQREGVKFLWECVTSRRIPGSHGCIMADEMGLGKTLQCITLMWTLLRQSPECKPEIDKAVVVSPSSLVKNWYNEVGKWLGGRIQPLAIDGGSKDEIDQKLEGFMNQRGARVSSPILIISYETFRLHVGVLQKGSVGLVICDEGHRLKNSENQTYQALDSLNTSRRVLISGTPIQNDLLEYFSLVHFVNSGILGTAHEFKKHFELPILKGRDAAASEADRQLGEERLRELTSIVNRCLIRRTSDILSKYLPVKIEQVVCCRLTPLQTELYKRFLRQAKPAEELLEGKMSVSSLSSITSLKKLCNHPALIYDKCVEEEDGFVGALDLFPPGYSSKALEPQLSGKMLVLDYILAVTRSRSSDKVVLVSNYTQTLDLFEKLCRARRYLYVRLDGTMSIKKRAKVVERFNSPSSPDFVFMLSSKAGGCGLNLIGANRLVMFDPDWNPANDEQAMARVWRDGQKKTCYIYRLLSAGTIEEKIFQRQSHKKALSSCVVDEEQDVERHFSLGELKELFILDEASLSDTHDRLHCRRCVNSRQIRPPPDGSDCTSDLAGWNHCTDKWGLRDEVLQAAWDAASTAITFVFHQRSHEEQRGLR

[11] = molecular target: T6, DNA repair protein RAD52 homolog (Homo sapiens, UniProt P43351); type: functional, biochemical
T6 sequence (P43351 whole entry): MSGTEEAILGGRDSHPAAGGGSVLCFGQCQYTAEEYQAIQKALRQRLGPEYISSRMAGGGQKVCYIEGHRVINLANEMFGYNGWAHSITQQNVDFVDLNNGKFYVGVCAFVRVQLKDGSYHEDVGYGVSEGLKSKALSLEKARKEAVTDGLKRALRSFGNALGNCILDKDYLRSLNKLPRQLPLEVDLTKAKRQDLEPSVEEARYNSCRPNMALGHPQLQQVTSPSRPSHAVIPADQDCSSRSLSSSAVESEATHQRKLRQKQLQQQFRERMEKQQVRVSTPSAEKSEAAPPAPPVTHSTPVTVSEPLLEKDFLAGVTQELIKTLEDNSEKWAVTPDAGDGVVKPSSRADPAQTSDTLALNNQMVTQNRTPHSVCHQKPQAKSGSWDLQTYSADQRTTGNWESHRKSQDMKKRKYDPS

[12] = Shn3 3'UTR reporter inhibitors, dose response, cell-based, Clone20 osteoblasts, firefly luciferase, cherry-picked (AID 624132); type: functional;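 further: firefly luciferase luminescence from reporter carrying the Shn3 3'UTR in osteoblasts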
[13] = HepG2 cell cytotoxicity, dose response, cytotoxicity control for Shn3 inhibitor project, CellTiter-Glo, cherry-picked (AID 624134); type: functional, cell-based
[14] = control 3'UTR Renilla luciferase suppression, dose response, counter-screen for Shn3 inhibitor project, cell-based, Clone20-Shn3RL, cherry-picked (AID 624133); type: functional
[15] = tested on: Streptococcus sp. 'group A'; assay: growth inhibition of control SK(-) GAS strain, dose response, counter-screen for streptokinase expression inhibitor project, luminescence, kanamycin, BacTiterGlo, confirmation (AID 1900); type: functional, organism-based
Streptokinase A = molecular target: T7, Streptokinase A (Streptococcus pyogenes serotype M1, UniProt P10520); assay: S. pyogenes streptokinase expression inhibitors, potency, dose response, plasminogen activation absorbance, OD405 (AID 1914); type: functional, Streptococcus pyogenes M1 GAS;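 further: secreted streptokinase activity via plasminogen activation per viability signal from cell pellet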
T7 sequence (P10520 whole entry): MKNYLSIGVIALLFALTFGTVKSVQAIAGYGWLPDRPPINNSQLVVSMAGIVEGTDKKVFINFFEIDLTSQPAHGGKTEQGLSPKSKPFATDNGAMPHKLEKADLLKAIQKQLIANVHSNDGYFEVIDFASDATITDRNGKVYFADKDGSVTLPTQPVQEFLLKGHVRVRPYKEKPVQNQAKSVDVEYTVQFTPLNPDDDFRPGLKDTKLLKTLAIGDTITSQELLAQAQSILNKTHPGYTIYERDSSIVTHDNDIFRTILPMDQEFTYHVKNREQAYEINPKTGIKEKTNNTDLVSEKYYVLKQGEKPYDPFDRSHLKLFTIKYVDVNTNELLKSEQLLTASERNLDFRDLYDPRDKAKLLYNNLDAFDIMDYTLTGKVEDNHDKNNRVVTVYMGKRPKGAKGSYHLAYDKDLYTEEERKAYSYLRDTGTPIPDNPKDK

Streptococcus = assay: Group A Streptococcus viability loss, dose response, counter-screen for streptokinase expression inhibitor project, luminescence, BacTiterGlo (AID 1915); type: functional, organism-based;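 further: potency for reduction of bacterial viability or growth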
[16] = molecular target: DNA dC->dU-editing enzyme APOBEC-3G (Homo sapiens, UniProt Q9HC16); assay: APOBEC3G deaminase inhibitors, SAR follow-up, biochemical, fluorescence, single-stranded DNA substrate (AID 602136); type: functional; settings: read-out: IC50_Mean
[17] = molecular target: DNA dC->dU-editing enzyme APOBEC-3A (Homo sapiens, UniProt P31941); assay: SAR analysis of small molecule inhibitors of APOBEC3A DNA Deaminase via a fluorescence-based single-stranded DNA deaminase assay.; type: functional; settings: read-out: IC50_Mean
Cytochrome P450 2C9 = Cytochrome P450 2C9 (Homo sapiens, UniProt P11712)
Chain of Cytochrome P450 2C9 (P11712 whole entry): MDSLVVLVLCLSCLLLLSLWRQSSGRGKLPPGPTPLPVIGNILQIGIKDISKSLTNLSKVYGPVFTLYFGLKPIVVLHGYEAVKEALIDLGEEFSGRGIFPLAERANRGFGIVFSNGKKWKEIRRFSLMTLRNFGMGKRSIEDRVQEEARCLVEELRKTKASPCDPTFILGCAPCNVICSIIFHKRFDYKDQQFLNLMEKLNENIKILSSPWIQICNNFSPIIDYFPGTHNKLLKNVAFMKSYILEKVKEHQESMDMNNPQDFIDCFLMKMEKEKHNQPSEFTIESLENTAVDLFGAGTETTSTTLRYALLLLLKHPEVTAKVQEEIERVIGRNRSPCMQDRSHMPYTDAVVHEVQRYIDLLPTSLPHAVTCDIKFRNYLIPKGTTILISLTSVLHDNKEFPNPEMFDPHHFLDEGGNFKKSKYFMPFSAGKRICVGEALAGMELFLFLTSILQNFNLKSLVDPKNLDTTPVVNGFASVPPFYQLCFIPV

Chain of DNA dC->dU-editing enzyme APOBEC-3A (P31941 whole entry): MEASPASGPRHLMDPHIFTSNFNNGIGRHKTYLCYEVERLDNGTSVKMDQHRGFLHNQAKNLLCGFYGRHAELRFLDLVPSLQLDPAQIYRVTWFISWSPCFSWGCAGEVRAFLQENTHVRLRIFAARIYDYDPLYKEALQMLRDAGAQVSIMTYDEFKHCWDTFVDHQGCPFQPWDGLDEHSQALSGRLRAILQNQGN
Chain of DNA dC->dU-editing enzyme APOBEC-3G (Q9HC16 whole entry): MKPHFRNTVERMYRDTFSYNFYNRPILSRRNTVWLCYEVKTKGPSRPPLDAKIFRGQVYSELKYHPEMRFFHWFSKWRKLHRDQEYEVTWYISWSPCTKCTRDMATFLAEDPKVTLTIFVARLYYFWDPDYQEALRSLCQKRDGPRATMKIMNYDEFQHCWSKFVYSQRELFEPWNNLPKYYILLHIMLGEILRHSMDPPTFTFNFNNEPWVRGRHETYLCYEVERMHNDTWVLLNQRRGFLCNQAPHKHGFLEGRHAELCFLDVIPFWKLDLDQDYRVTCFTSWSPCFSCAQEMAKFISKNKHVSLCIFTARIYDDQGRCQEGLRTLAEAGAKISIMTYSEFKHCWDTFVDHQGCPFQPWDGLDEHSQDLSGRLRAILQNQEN
T4 sequence (P11940 whole entry): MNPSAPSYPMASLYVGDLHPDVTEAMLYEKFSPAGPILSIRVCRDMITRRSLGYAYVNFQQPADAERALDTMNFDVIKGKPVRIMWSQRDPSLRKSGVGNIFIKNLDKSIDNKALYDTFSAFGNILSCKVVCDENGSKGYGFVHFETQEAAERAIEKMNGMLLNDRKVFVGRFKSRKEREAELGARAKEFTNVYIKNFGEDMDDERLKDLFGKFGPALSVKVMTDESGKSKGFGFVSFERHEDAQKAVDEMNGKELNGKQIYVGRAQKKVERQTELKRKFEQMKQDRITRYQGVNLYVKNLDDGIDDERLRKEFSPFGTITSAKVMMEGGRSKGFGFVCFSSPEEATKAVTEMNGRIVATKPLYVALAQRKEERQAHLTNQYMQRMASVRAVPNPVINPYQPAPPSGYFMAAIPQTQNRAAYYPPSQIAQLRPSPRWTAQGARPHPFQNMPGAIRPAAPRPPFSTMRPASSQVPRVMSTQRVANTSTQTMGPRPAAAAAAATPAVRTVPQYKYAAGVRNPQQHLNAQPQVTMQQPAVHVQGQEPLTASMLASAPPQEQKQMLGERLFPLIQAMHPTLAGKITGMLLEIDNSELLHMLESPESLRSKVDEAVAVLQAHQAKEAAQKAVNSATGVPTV
Chain of Induced myeloid leukemia cell differentiation protein Mcl-1 (Q07820 whole entry): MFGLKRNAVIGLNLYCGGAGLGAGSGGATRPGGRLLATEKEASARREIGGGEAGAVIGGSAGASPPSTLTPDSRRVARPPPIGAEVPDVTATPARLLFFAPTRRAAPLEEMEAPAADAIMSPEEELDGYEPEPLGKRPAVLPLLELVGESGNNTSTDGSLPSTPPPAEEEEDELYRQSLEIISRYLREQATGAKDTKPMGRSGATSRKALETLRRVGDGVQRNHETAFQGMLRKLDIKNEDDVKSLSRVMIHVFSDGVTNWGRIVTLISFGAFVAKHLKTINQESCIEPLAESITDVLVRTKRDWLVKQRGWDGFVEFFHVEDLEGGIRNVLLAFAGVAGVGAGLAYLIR

With O=C(NCc1cccs1)c1cccc(Nc2nc3cc(Br)ccc3[nH]2)c1 the IC50 [1] was 11.1 µM (not active), the IC50 [2] was 31.3 µM (inactive) and the IC50 [3] was 83.1 µM (inactive). For the same molecule, the IC50 [4] was 38.7 µM (inactive).

For COc1ccc2c(c1)c1ccc3c(c1n2C)C(=O)C=CC3=O, the IC50 [5] was 0.946 µM (active), the IC50 [6] was 19.3 µM (active) and the IC50 [7] was > 66 µM (inactive). For the same molecule, the IC50 [8] was 58.5 µM (inactive) and the CC50 [9] was 18 µM (active).

For Cc1cccn2c(=O)c3cc(C(=O)NCCN4CCOCC4)c(=N)n(CCN4CCOCC4)c3nc12, the AC50 [10] was 15.9 µM (active) and the AC50 [11] was 13.7 µM (active).

With O=C(c1ccc(Cl)cc1)C1CCCN(Cc2cccc3ncccc23)C1 (centres undefined) the AC50 [12] was 4.52 µM (active), the AC50 [13] was > 70 µM (inactive) and the AC50 [14] was 7.83 µM (active).

For COc1ccc(Nc2c3c(nc4ccc(C)cc24)CCC3)cc1, the AC50 [10] was 84.4 µM (active).

With S=C(NCc1cccs1)Nc1cc(Cl)cc(Cl)c1 the EC50 [15] was 5.49 µM (active), the EC50 (Streptokinase A) was > 150 µM (not active) and the EC50 (Streptococcus) was 13.7 µM (active). For the same molecule, the IC50 [2] was 104 µM (inactive), the IC50 [3] was 34.5 µM (inactive) and the IC50 [4] was 24.6 µM (inactive).

In the case of COc1cc(CNc2[nH]cnc3c4cc(C)ccc4nc2-3)cc(OC)c1, the IC50 [2] is reported as 1.46 µM (active), the IC50 [3] is reported as 27.8 µM (inactive) and the IC50 [4] is reported as 2.32 µM (active).

For C#CCSc1nnc(-c2cc3c(C(F)(F)F)nn(C)c3s2)n1C, the IC50 [16] was > 99 µM (inactive), the IC50 [17] was > 99 µM (inactive) and the AC50 (Cytochrome P450 2C9) was “inconclusive”.

With O=C(c1nn2c(C(F)(F)F)cc(-c3ccc(Cl)cc3)nc2c1Cl)N1CCCC1 the IC50 [16] was > 99 µM (inactive) and the IC50 [17] was > 99 µM (inactive).
